From patent publication US20090036450A1, “PYRAZOLE COMPOUNDS AND USE THEREOF” (JAPAN TOBACCO, INC., priority 2006, published 2009)

Biological target: T1, human liver glycogen phosphorylase (Homo sapiens, UniProt P06737)
T1 construct: made in house; host or cells: Sf9 insect cells (suspension of disrupted cells, diluted in BES buffer, not purified)
T1 sequence (P06737 1-847): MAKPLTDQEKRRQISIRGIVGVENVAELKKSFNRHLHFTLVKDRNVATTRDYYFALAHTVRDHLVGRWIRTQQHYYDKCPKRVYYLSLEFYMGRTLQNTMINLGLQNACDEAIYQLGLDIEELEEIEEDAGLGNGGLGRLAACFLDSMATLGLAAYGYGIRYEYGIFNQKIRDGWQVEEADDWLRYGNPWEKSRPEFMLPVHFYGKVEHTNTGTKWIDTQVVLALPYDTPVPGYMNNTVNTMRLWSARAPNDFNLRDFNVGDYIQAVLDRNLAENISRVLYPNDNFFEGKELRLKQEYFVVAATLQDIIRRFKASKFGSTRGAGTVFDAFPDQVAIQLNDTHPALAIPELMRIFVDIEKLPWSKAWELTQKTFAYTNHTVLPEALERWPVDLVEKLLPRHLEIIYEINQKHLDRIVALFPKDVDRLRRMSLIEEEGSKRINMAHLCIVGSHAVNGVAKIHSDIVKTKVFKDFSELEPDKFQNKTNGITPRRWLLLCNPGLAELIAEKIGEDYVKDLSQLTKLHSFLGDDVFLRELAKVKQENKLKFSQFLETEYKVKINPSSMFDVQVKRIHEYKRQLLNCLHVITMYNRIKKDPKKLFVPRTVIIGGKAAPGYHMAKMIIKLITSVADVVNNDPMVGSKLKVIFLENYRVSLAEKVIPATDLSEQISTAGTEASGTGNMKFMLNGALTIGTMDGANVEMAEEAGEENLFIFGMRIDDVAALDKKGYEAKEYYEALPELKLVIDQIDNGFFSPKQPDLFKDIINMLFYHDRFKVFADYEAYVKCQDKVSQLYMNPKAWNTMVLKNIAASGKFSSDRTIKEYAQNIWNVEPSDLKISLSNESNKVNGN
Assay: Liver glycogen phosphorylase activity, forward reaction system (NADPH detection at 340 nm)
Assay type: biochemical
Conditions: enzyme inhibitory activity against recombinant human liver glycogen phosphorylase (Sf9 cell lysate), room temperature, 75 minutes
Experimental: The glycogen phosphorylase activity was determined by a method using a forward reaction system.
The following method was used to determine the glycogen phosphorylase activity using a forward reaction system. Glucose-1-phosphate generated from glycogen by glycogen phosphorylase was converted to glucono-δ-lactone-6-phosphate by transphosphorylation and dehydrogenation reactions using phosphoglucomutase and glucose-6-phosphate dehydrogenase (G6PDH). At this time, NADPH generated from NADP in the dehydrogenation reaction by G6PDH was detected.
An enzyme solution of human liver glycogen phosphorylase was obtained by diluting with 100 mmol/L BES buffer (pH 6.8, containing 2 mmol/L EDTA) a suspension disrupted Sf9 cells in which a recombinant human liver glycogen phosphorylase was forcibly expressed. Phosphate buffer (16 mmol/L KH2PO4, containing 24 mmol/L Na2HPO4) was used as a substrate solution. A mixture of 8 U/mL phosphoglucomutase and 60 U/mL G6PDH was prepared with BES buffer. A reaction buffer (1.4 mmol/L NADP, 30 mmol/L MgCl2, 8 μmol/L glucose-1,6-diphosphate, 8 mg/mL glycogen, 40 mmol/L BES, containing 0.8 mmol/L EDTA) and a glucose solution (75 mmol/L glucose and 100 mmol/L BES, containing 2 mmol/L EDTA) were prepared. A test substance was dissolved in 1% DMSO aqueous solution.
To a mixture of the glucose solution (20 μL), the substrate solution (20 μL), the reaction buffer (100 μL), and the test substance (20 μL), the recombinant human liver glycogen phosphorylase solution (20 μL), and a mixture (20 μL) of phosphoglucomutase and G6PDH were added to initiate an enzymatic reaction. To a control, 1% DMSO aqueous solution was added instead of the test substance. A solution to which the substrate was not added was used as a blank. After initiation of the reaction, absorbance at 340 nm was measured immediately. The reaction was performed at room temperature for 75 minutes, and then absorbance at 340 nm was measured again. The enzyme activity was obtained by deducting the change in absorbance of the blank for 75 minutes from the change in absorbance over 75 minutes. The inhibition rate (%) of the test substance was calculated by “(1−(enzyme activity of test substance)/(enzyme activity of control))×100”.
“IC50” represents an enzyme inhibitory activity against human liver glycogen phosphorylase.

| Structure (SMILES) | IC50 [nM] |
| --- | --- |
| CCOC(=O)c1ccc(CNC(=O)c2cc(NC(=O)c3cc(F)c(F)cc3Cl)[nH]n2)o1 [Example 1-1, 5-(2-chloro-4,5-difluoro-benzoylamino)-1H-pyrazole-3-carboxylic acid (5-ethoxycarbonyl-furan-2-ylmethyl)-amide] | < 100 |
| CCN(CC)S(=O)(=O)c1ccsc1CNC(=O)c1cc(NC(=O)c2cc(F)c(F)cc2Cl)[nH]n1 [Example 1-2, 5-(2-chloro-4,5-difluoro-benzoylamino)-1H-pyrazole-3-carboxylic acid (3-diethylsulfamoyl-thiophen-2-ylmethyl)-amide] | 100 to 300 |
| O=C(NCc1sccc1OCc1ccccc1)c1cc(NC(=O)c2cc(F)c(F)cc2Cl)[nH]n1 [Example 1-3, 5-(2-chloro-4,5-difluoro-benzoylamino)-1H-pyrazole-3-carboxylic acid (3-benzyloxy-thiophen-2-ylmethyl)-amide] | 100 to 300 |
| Cc1nc(-c2ccc(CNC(=O)c3cc(NC(=O)c4cc(F)c(F)cc4Cl)[nH]n3)s2)cs1 [Example 1-4, 5-(2-chloro-4,5-difluoro-benzoylamino)-1H-pyrazole-3-carboxylic acid [5-(2-methyl-thiazol-4-yl)-thiophen-2-ylmethyl]-amide] | < 100 |
| O=C(NCc1csc(-c2ccc(Cl)cc2)n1)c1cc(NC(=O)c2cc(F)c(F)cc2Cl)[nH]n1 [Example 1-5, 5-(2-chloro-4,5-difluoro-benzoylamino)-1H-pyrazole-3-carboxylic acid [2-(4-chloro-phenyl)-thiazol-4-ylmethyl]-amide] | < 100 |
| Cc1nc(-c2ccc(C(F)(F)F)cc2)sc1CNC(=O)c1cc(NC(=O)c2cc(F)c(F)cc2Cl)[nH]n1 [Example 1-6, 5-(2-chloro-4,5-difluoro-benzoylamino)-1H-pyrazole-3-carboxylic acid [4-methyl-2-(4-trifluoromethyl-phenyl)-thiazol-5-ylmethyl]-amide] | 100 to 300 |
| Cc1ccc(-c2nc(C)c(CNC(=O)c3cc(NC(=O)c4cc(F)c(F)cc4Cl)[nH]n3)s2)s1 [Example 1-7, 5-(2-chloro-4,5-difluoro-benzoylamino)-1H-pyrazole-3-carboxylic acid [4-methyl-2-(5-methyl-thiophen-2-yl)-thiazol-5-ylmethyl]-amide] | < 100 |
| Cc1nc(-c2ccc(Cl)s2)sc1CNC(=O)c1cc(NC(=O)c2cc(F)c(F)cc2Cl)[nH]n1 [Example 1-8, 5-(2-chloro-4,5-difluoro-benzoylamino)-1H-pyrazole-3-carboxylic acid [2-(5-chlorothiophen-2-yl)-4-methyl-thiazol-5-ylmethyl]-amide] | < 100 |
| Cc1nc(-c2cc3ccccc3s2)sc1CNC(=O)c1cc(NC(=O)c2cc(F)c(F)cc2Cl)[nH]n1 [Example 1-9, 5-(2-chloro-4,5-difluoro-benzoylamino)-1H-pyrazole-3-carboxylic acid (2-benzo[b]thiophen-2-yl-4-methyl-thiazol-5-ylmethyl)-amide] | < 100 |
| CCOC(=O)c1nc(C)c(CNC(=O)c2cc(NC(=O)c3cc(F)c(F)cc3Cl)[nH]n2)s1 [Example 1-10, 5-(2-chloro-4,5-difluoro-benzoylamino)-1H-pyrazole-3-carboxylic acid (2-ethoxycarbonyl-4-methyl-thiazol-5-ylmethyl)-amide] | < 100 |
| Cc1nc(C23CC4CC(CC(C4)C2)C3)c(CNC(=O)c2cc(NC(=O)c3cc(F)c(F)cc3Cl)[nH]n2)s1 [Example 1-11, 5-(2-chloro-4,5-difluoro-benzoylamino)-1H-pyrazole-3-carboxylic acid (4-adamantan-1-yl-2-methyl-thiazol-5-ylmethyl)-amide] | < 100 |
| Cc1nc2c(s1)CN(C(=O)c1cc(NC(=O)c3cc(F)c(F)cc3Cl)[nH]n1)CC2 [Example 1-12] | 100 to 300 |
| CCOC(=O)c1[nH]c(CNC(=O)c2cc(NC(=O)c3cc(F)c(F)cc3Cl)[nH]n2)nc1C [Example 1-13, 5-(2-chloro-4,5-difluoro-benzoylamino)-1H-pyrazole-3-carboxylic acid (5-ethoxycarbonyl-4-methyl-1H-imidazol-2-ylmethyl)-amide] | < 100 |
| Cc1onc(-c2ccc(C#N)cc2)c1CNC(=O)c1cc(NC(=O)c2cc(F)c(F)cc2Cl)[nH]n1 [Example 1-14, 5-(2-chloro-4,5-difluoro-benzoylamino)-1H-pyrazole-3-carboxylic acid [3-(4-cyano-phenyl)-5-methylisoxazol-4-ylmethyl]-amide] | < 100 |
| Cc1onc(-c2ccc(N(C)C)cc2)c1CNC(=O)c1cc(NC(=O)c2cc(F)c(F)cc2Cl)[nH]n1 [Example 1-15, 5-(2-chloro-4,5-difluoro-benzoylamino)-1H-pyrazole-3-carboxylic acid [3-(4-dimethylamino-phenyl)-5-methylisoxazol-4-ylmethyl]-amide] | < 100 |
| Cc1onc(-c2ccc(S(C)(=O)=O)cc2)c1CNC(=O)c1cc(NC(=O)c2cc(F)c(F)cc2Cl)[nH]n1 [Example 1-16, 5-(2-chloro-4,5-difluoro-benzoylamino)-1H-pyrazole-3-carboxylic acid [3-(4-methanesulfonyl-phenyl)-5-methylisoxazol-4-ylmethyl]-amide] | < 100 |
| Cc1onc(-c2ccccc2F)c1CNC(=O)c1cc(NC(=O)c2cc(F)c(F)cc2Cl)[nH]n1 [Example 1-17, 5-(2-chloro-4,5-difluoro-benzoylamino)-1H-pyrazole-3-carboxylic acid [3-(2-fluoro-phenyl)-5-methylisoxazol-4-ylmethyl]-amide] | 100 to 300 |
| Cc1cc(-c2onc(C)c2CNC(=O)c2cc(NC(=O)c3cc(F)c(F)cc3Cl)[nH]n2)no1 [Example 1-18, 5-(2-chloro-4,5-difluoro-benzoylamino)-1H-pyrazole-3-carboxylic acid (5,3′-dimethyl-[3,5′]biisoxazolyl-4′-ylmethyl)-amide] | < 100 |
| Cc1cccc(-c2onc(C)c2CNC(=O)c2cc(NC(=O)c3cc(F)c(F)cc3Cl)[nH]n2)n1 [Example 1-19, 5-(2-chloro-4,5-difluoro-benzoylamino)-1H-pyrazole-3-carboxylic acid [3-methyl-5-(6-methyl-pyridin-2-yl)-isoxazol-4-ylmethyl]-amide] | < 100 |
| Cc1noc(-c2ccnc(Cl)c2)c1CNC(=O)c1cc(NC(=O)c2cc(F)c(F)cc2Cl)[nH]n1 [Example 1-20, 5-(2-chloro-4,5-difluoro-benzoylamino)-1H-pyrazole-3-carboxylic acid [5-(2-chloro-pyridin-4-yl)-3-methylisoxazol-4-ylmethyl]-amide] | < 100 |
| Cc1ccc(-c2onc(C)c2CNC(=O)c2cc(NC(=O)c3cc(F)c(F)cc3Cl)[nH]n2)cn1 [Example 1-21, 5-(2-chloro-4,5-difluoro-benzoylamino)-1H-pyrazole-3-carboxylic acid [3-methyl-5-(6-methyl-pyridin-3-yl)-isoxazol-4-ylmethyl]-amide] | < 100 |
| Cc1nc(C)c(-c2onc(C)c2CNC(=O)c2cc(NC(=O)c3cc(F)c(F)cc3Cl)[nH]n2)s1 [Example 1-22, 5-(2-chloro-4,5-difluoro-benzoylamino)-1H-pyrazole-3-carboxylic acid [5-(2,4-dimethyl-thiazol-5-yl)-3-methylisoxazol-4-ylmethyl]-amide] | < 100 |
| CCOC(=O)c1cc(CNC(=O)c2cc(NC(=O)c3cc(F)c(F)cc3Cl)[nH]n2)on1 [Example 1-23, 5-(2-chloro-4,5-difluoro-benzoylamino)-1H-pyrazole-3-carboxylic acid (3-ethoxycarbonylisoxazol-5-ylmethyl)-amide] | < 100 |
